In patent publication US20240287138A1, “CYCLIC PEPTIDES FOR INHIBITING TNF RECEPTOR 1 ACTIVITY” (Merck Sharp & Dohme LLC, priority 2023, published 2024):
Numbered stars: 1 amine (or outer) side, 2 acyl side, 3 side chain; on linkers, the order of the positions; unused ones are H or OH. Square brackets hold non-standard residues; d marks the D form. Peptide text beside a SMILES is read from it. * marks the point of attachment. Trp(βS-Me,7-OMe) = COc1cccc2c([C@H](C)[C@H](N)C(=O)O)c[nH]c12; Phe(4-SO2NH2) = N[C@@H](Cc1ccc(S(N)(=O)=O)cc1)C(=O)O; Phe(2-F,4-COOH) = N[C@@H](Cc1ccc(C(=O)O)cc1F)C(=O)O; Trp(7-CN) = N#Cc1cccc2c(C[C@H](N)C(=O)O)c[nH]c12; Trp(7-Cl) = N[C@@H](Cc1c[nH]c2c(Cl)cccc12)C(=O)O; Phe(4-CONH2) = NC(=O)c1ccc(C[C@H](N)C(=O)O)cc1; Phe(4-COOH) = N[C@@H](Cc1ccc(C(=O)O)cc1)C(=O)O; Trp(7-aza) = N[C@@H](Cc1c[nH]c2ncccc12)C(=O)O; Pip(5R-OH) = O=C(O)[C@@H]1CC[C@@H](O)CN1; X1 = O=C([C@@H]1CC[C@H](N[*:1])C1)[*:2]; 4Pal = N[C@@H](Cc1ccncc1)C(=O)O; NMeE = CN[C@@H](CCC(=O)O)C(=O)O; dHyp = O=C(O)[C@H]1C[C@H](O)CN1; aThr = C[C@H](O)[C@H](N)C(=O)O; αMeS = C[C@](N)(CO)C(=O)O; Carboxymethyl = O=C(O)C*; Nle = CCCC[C@H](N)C(=O)O; Sar = CNCC(=O)O

Key:
[1] = target: T1, human soluble TNFR1 (sTNFR1) (Homo sapiens, UniProt P19438); assay: Human sTNFR1-peptide displacement assay (LanthaScreen Eu TR-FRET binding assay)
T1 construct: made in house; host or cells: Sf21 (baculovirus)
T1 sequence (P19438 with tags, fused parts or gaps): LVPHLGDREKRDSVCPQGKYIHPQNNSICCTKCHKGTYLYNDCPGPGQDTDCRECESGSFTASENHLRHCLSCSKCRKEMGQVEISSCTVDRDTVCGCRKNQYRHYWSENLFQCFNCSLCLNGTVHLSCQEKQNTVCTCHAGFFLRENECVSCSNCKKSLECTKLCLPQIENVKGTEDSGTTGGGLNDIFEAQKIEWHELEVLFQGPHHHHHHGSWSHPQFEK
Procedure, shortened: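 Readout is the 665/615 nm TR-FRET ratio (Eu anti-His donor, streptavidin-Alexa647 acceptor), normalized to DMSO and saturating displacer, fit by Morrison-based five-parameter logistic for Kd^app. His-tagged sTNFR1 (1-211) prebound to 100 nM biotinylated peptide SEQ ID NO.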

[2] = target: T2, human TNFR1 extracellular domain (ECD) protein (Homo sapiens, UniProt P19438); assay: SPR binding affinity to captured human TNFR1 ECD
T2 construct: HRV 3C protease cleavage site (C); 6His (C, cleaved yes); made in house; host or cells: Sf21 insect cells (baculovirus), secreted
T2 sequence (P19438 30-211): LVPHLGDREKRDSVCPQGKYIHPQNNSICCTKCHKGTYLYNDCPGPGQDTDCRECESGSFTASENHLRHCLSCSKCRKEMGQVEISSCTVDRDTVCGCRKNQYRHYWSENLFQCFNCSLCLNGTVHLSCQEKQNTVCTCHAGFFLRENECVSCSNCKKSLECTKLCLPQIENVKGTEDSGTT
Procedure, shortened: (§1)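 Biotinylated human TNFR1 or TNFR2 ECD (C-terminal Avi-tag, Sf21-expressed) captured on a regenerable streptavidin chip; peptide analytes flowed in 10 mM HEPES pH 7.4, 150 mM NaCl, 3 mM EDTA, 0.05% P20, 2% DMSO. kon and koff measured; affinity calculated from the rate constants.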

human TNFR2 ECD protein = target: T3, human TNFR2 ECD protein (Homo sapiens, UniProt P20333); assay: SPR off-target binding (selectivity) to human TNFR2 ECD
T3 construct: HRV 3C protease cleavage site (C); 6His (C, cleaved yes); made in house; host or cells: Sf21 insect cells (baculovirus), secreted
T3 sequence (P20333 23-257): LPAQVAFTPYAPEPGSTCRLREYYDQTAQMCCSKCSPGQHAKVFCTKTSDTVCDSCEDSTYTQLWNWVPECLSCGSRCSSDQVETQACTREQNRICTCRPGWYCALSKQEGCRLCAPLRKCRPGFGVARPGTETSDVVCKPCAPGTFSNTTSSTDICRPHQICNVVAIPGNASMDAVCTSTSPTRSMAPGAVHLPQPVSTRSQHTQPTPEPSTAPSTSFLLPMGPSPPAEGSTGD
Procedure, shortened: as §1

| Compound | Kd [1] | Kd [2] | Kd (human TNFR2 ECD protein) |
| --- | --- | --- | --- |
| CCCC[C@@H]1NC(=O)[C@@H]2CC[C@@H](C2)NC(=O)[C@H]([C@@H](C)c2c[nH]c3c(OC)cccc23)NC(=O)CN(C)C(=O)[C@H](Cc2ccc(C(N)=O)cc2)NC(=O)[C@H](Cc2ccc(C(N)=O)cc2)NC(=O)[C@](C)(CO)NC(=O)[C@H](Cc2c[nH]c3c(C#N)cccc23)NC(=O)[C@H](Cc2ccc(C(=O)O)cc2)NC(=O)[C@H](CC(N)=O)NC(=O)[C@H](CCC(=O)O)N(C)C(=O)[C@H](Cc2c[nH]c3ccccc23)NC(=O)[C@@H]2CC[C@@H](O)CN2C(=O)[C@H](Cc2ccncc2)NC1=O [SEQ ID NO. 19] (cyclo([4Pal][Pip(5R-OH)]W[NMeE]N[Phe(4-COOH)][Trp(7-CN)][αMeS][Phe(4-CONH2)][Phe(4-CONH2)][Sar][Trp(βS-Me,7-OMe)][X1][Nle])) | 0.08 nM | 0.07 nM | > 1000 nM |
| CCCC[C@@H]1NC(=O)[C@@H]2CC[C@@H](C2)NC(=O)[C@H]([C@@H](C)c2c[nH]c3c(OC)cccc23)NC(=O)CN(C)C(=O)[C@H](Cc2ccc(C(=O)O)cc2)NC(=O)[C@H](Cc2ccc(S(N)(=O)=O)cc2)NC(=O)[C@](C)(CO)NC(=O)[C@H](Cc2c[nH]c3c(C#N)cccc23)NC(=O)[C@H](Cc2ccc(C(=O)O)cc2)NC(=O)[C@H](CC(N)=O)NC(=O)[C@H]2C[C@H](OCC(=O)O)CN2C(=O)[C@H](Cc2c[nH]c3ncccc23)NC(=O)[C@@H]2CC[C@@H](O)CN2C(=O)[C@H](Cc2ccncc2)NC1=O [SEQ ID NO. 4] (cyclo([4Pal][Pip(5R-OH)][Trp(7-aza)][dHyp](Carboxymethyl)N[Phe(4-COOH)][Trp(7-CN)][αMeS][Phe(4-SO2NH2)][Phe(4-COOH)][Sar][Trp(βS-Me,7-OMe)][X1][Nle])) | 0.09 nM | 0.1 nM | > 1000 nM |
| CCCC[C@@H]1NC(=O)[C@@H]2CC[C@@H](C2)NC(=O)[C@H]([C@@H](C)c2c[nH]c3c(OC)cccc23)NC(=O)CN(C)C(=O)[C@H](Cc2ccc(C(N)=O)cc2)NC(=O)[C@H](Cc2ccc(C(N)=O)cc2)NC(=O)[C@](C)(CO)NC(=O)[C@H](Cc2c[nH]c3c(Cl)cccc23)NC(=O)[C@H](Cc2ccncc2)NC(=O)[C@H](CC(N)=O)NC(=O)[C@H](CCC(=O)O)N(C)C(=O)[C@H](Cc2c[nH]c3ncccc23)NC(=O)[C@@H]2CC[C@@H](O)CN2C(=O)[C@H](Cc2ccncc2)NC1=O [SEQ ID NO. 189] (cyclo([4Pal][Trp(7-Cl)][αMeS][Phe(4-CONH2)][Phe(4-CONH2)][Sar][Trp(βS-Me,7-OMe)][X1][Nle][4Pal][Pip(5R-OH)][Trp(7-aza)][NMeE]N)) | 0.01 nM | 0.1 nM | > 1000 nM |
| CCCC[C@@H]1NC(=O)[C@@H]2CC[C@@H](C2)NC(=O)[C@H]([C@@H](C)c2c[nH]c3c(OC)cccc23)NC(=O)CN(C)C(=O)[C@H](Cc2ccc(C(=O)O)cc2)NC(=O)[C@H](Cc2ccc(C(N)=O)cc2)NC(=O)[C@](C)(CO)NC(=O)[C@H](Cc2c[nH]c3c(Cl)cccc23)NC(=O)[C@H](Cc2ccncc2)NC(=O)[C@H]([C@H](C)O)NC(=O)[C@H]2C[C@H](O)CN2C(=O)[C@H](Cc2c[nH]c3ccccc23)NC(=O)[C@@H]2CC[C@@H](O)CN2C(=O)[C@H](Cc2ccncc2)NC1=O [SEQ ID NO. 187] (cyclo([4Pal][Trp(7-Cl)][αMeS][Phe(4-CONH2)][Phe(4-COOH)][Sar][Trp(βS-Me,7-OMe)][X1][Nle][4Pal][Pip(5R-OH)]W[dHyp][aThr])) | 0.09 nM | 0.04 nM | > 1000 nM |
| CCCC[C@@H]1NC(=O)[C@@H]2CC[C@@H](C2)NC(=O)[C@H]([C@@H](C)c2c[nH]c3c(OC)cccc23)NC(=O)CN(C)C(=O)[C@H](Cc2ccc(C(=O)O)cc2F)NC(=O)[C@H](Cc2ccc(S(N)(=O)=O)cc2)NC(=O)[C@](C)(CO)NC(=O)[C@H](Cc2c[nH]c3c(C#N)cccc23)NC(=O)[C@H](Cc2ccc(C(=O)O)cc2F)NC(=O)[C@H](CC(N)=O)NC(=O)[C@H]2C[C@H](OCC(=O)O)CN2C(=O)[C@H](Cc2c[nH]c3ncccc23)NC(=O)[C@@H]2CC[C@@H](O)CN2C(=O)[C@H](Cc2ccncc2)NC1=O [SEQ ID NO. 134] (cyclo([4Pal][Pip(5R-OH)][Trp(7-aza)][dHyp](Carboxymethyl)N[Phe(2-F,4-COOH)][Trp(7-CN)][αMeS][Phe(4-SO2NH2)][Phe(2-F,4-COOH)][Sar][Trp(βS-Me,7-OMe)][X1][Nle])) | 0.06 nM | 0.05 nM | > 1000 nM |
